Assay: Absorption test, oral, rats, solution in buffer pH 7 (Example 16)
Type: in vivo, Male Wistar rats
Conditions: blood, 50 mg/kg oral, rat, average of 6, read-out: Blood Concentration of the Compound
Experimental: The absorption test of the compounds as obtained in Examples 1-11 were tested by the following method.
Male Wistar rats weighing 180-250 g were fed with only water overnight. The next day the rats were orally administered with 50 mg/kg of a test compound which was dissolved in a buffer solution having pH of 7. The concentration of the compound in blood of the tested animals (one group consisting of 6 animals) was measured 0.5, 1, 2 and 4 hours after the administration by Bioassay method by using Bacillus subtilis ATCC 6633 strain as an indicator bacteria. In the measurement, an ordinary culture medium was employed, and the preparation of the standard solution and other method were carried out in according to Japanese Antibiotical Pharmaceutical Standards. Further, the concentration of the compound in blood was also measured by high performance liquid chromatography. The blood concentration shown below was an average value of each animal group.

Structure (SMILES): Cn1nnnc1SCC1=C(C(=O)O)N2C(=O)[C@@H](NC(=O)CSc3nc(C[C@H](N)C(=O)O)c[nH]3)[C@H]2SC1 [Example 2, 7-β-[4-(2'-amino-2'-carboxy)ethylimidazol-2-yl-thioacetamido]-3-[(1-methyl-1H-tetrazol-5-yl)thiomethyl]-3-cephem-4-carboxylic acid]
- concentration at 0.5 h: 4700 ng/mL
- concentration at 1 h: 2900 ng/mL
- concentration at 2 h: 2000 ng/mL
- concentration at 4 h: 1000 ng/mL

Structure (SMILES): Cc1nnc(SCC2=C(C(=O)O)N3C(=O)[C@@H](NC(=O)CSc4nc(C[C@H](N)C(=O)O)c[nH]4)[C@H]3SC2)s1 [Example 3, 7-β-[4-(2'-amino-2'-carboxy)ethylimidazol-2-yl-thioacetamido]-3-[2-(2-methyl-1,3,4-thiazolyl)thiomethyl]-3-cephem-4-carboxylic acid]
- concentration at 0.5 h: 11300 ng/mL
- concentration at 1 h: 12400 ng/mL
- concentration at 2 h: 13700 ng/mL
- concentration at 4 h: 9400 ng/mL

Structure (SMILES): N[C@@H](Cc1c[nH]c(SCC(=O)N[C@@H]2C(=O)N3C(C(=O)O)=C(CSc4nc[nH]n4)CS[C@H]23)n1)C(=O)O [Example 4, 7-β-[4-(2'-amino-2'-carboxy)ethylimidazol-2-yl-thioacetamido]-3-[(1,3,4-triazole)thiomethyl]-3-cephem-4-carboxylic acid]
- concentration at 0.5 h: 2100 ng/mL
- concentration at 1 h: 1200 ng/mL
- concentration at 2 h: 400 ng/mL
- concentration at 4 h: 100 ng/mL

Structure (SMILES): N[C@@H](Cc1c[nH]c(SCC(=O)N[C@@H]2C(=O)N3C(C(=O)O)=C(CSc4cnn[nH]4)CS[C@H]23)n1)C(=O)O [Example 5, 7-β-[4-(2'-amino-2'-carboxy)ethylimidazol-2-yl-thioacetamido]-3-[(1,2,3-triazole)thiomethyl]-3-cephem-4-carboxylic acid]
- concentration at 0.5 h: 12400 ng/mL
- concentration at 1 h: 13700 ng/mL
- concentration at 2 h: 14300 ng/mL
- concentration at 4 h: 10200 ng/mL

Structure (SMILES): Cc1nnc(SCC2=C(C(=O)O)N3C(=O)[C@@H](NC(=O)CSc4nc(C[C@H](N)C(=O)O)c[nH]4)[C@H]3SC2)o1 [Example 6, 7-β-[4-(2'-amino-2'-carboxy)ethylimidazol-2-yl-thioacetamido]-3-[(2-methyl-1,3,4-oxadiazole)thiomethyl]-3-cephem-4-carboxylic acid]
- concentration at 0.5 h: 8000 ng/mL
- concentration at 1 h: 5300 ng/mL
- concentration at 2 h: 3600 ng/mL
- concentration at 4 h: 1000 ng/mL

Structure (SMILES): Cn1nncc1SCC1=C(C(=O)O)N2C(=O)[C@@H](NC(=O)CSc3nc(C[C@H](N)C(=O)O)c[nH]3)[C@H]2SC1 [Example 7, 7-β-[4-(2'-amino-2'-carboxy)ethylimidazol-2-yl-thioacetamido]-3-[(1-methyl-1H-1,2,3-triazole)thiomethyl]-3-cephem-4-carboxylic acid]
- concentration at 0.5 h: 4200 ng/mL
- concentration at 1 h: 2100 ng/mL
- concentration at 2 h: 700 ng/mL
- concentration at 4 h: 400 ng/mL

Structure (SMILES): CC1=C(C(=O)O)N2C(=O)[C@@H](NC(=O)CSc3nc(C[C@H](N)C(=O)O)c[nH]3)[C@H]2SC1 [Example 8, 7-β-[4-(2'-amino-2'-carboxy)ethylimidazol-2-yl-thioacetamido]-3-methyl-3-cephem-4-carboxylic acid]
- concentration at 0.5 h: 14900 ng/mL
- concentration at 1 h: 11300 ng/mL
- concentration at 2 h: 7200 ng/mL
- concentration at 4 h: 4000 ng/mL

Structure (SMILES): COC1=C(C(=O)O)N2C(=O)[C@@H](NC(=O)CSc3nc(C[C@H](N)C(=O)O)c[nH]3)[C@H]2SC1 [Example 9, 7-β-[4-(2'-amino-2'-carboxy)ethylimidazol-2-yl-thioacetamido]-3-methoxy-3-cephem-4-carboxylic acid]
- concentration at 0.5 h: 8400 ng/mL
- concentration at 1 h: 6700 ng/mL
- concentration at 2 h: 3400 ng/mL
- concentration at 4 h: 1100 ng/mL

Structure (SMILES): N[C@@H](Cc1c[nH]c(SCC(=O)N[C@@H]2C(=O)N3C(C(=O)O)=C(Cl)CS[C@H]23)n1)C(=O)O [Example 10, 7-β-[4-(2'-amino-2'-carboxy)ethylimidazol-2-yl-thioacetamido]-3-chloro-3-cephem-4-carboxylic acid]
- concentration at 0.5 h: 7400 ng/mL
- concentration at 1 h: 5900 ng/mL
- concentration at 2 h: 3000 ng/mL
- concentration at 4 h: 1800 ng/mL
